{
  "source": "patent US6569637B1",
  "about": "“Diagnostic reagents for renal function disorders and method for analyzing urine samples” (Kikkoman Corporation, priority 1997, dated 2003)",
  "parameters": "species or system patient",
  "conditions": "in vivo",
  "method": "An ATP standard reagent was prepared by dissolving sodium salt of ATP in 25 mM HEPES buffer (pH7.75) at a concentration of 2×10^−6M.\nTwo-hundreds μl of a urine sample obtained from a patient suffering from renal dysfunction who received cisplatin administration was added and reacted with 200 μl of the ATP standard reagent prepared as described above at 37° C. for 30 minutes.\nThe solution was 10-fold diluted with 20 mM phosphate buffer (pH7.5), and 200 μl of the diluted solution was transferred into a test tube for ATP measurement. Then, 100 μl of luciferin-luciferase luminescent reagent which had been prepared by dissolving the freeze-dried luminescent reagent (included in ATP assay kit “CheckLite™” available from Kikkoman Corporation) in a solution for dissolving the reagent (also included in the kit) was added to the solution in the tube. The luminescent level based on the ATP level remaining after the reaction was immediately determined using Lumitester K-210.\nOn the other hand, the luminescent level corresponding to the ATP level in a urine sample before the reaction was determined in the same matter.\nDiagnosis of renal dysfunction by ATP method was performed by calculating the ATP index (residual ATP %) according to the equation below and determining whether the subject is a patient with renal dysfunction S or a healthy individual R according to the following criteria. […]",
  "data": [
    {"compound": "N.N.[Cl][Pt][Cl]", "note": "[cisplatin]", "values": [
      {"measurement": "residual ATP % in urine sample (ATP index)", "value": "decreases to the minimum"}
    ]}
  ]
}
